Read-outs that look alike come from different tables or passages of the source. Where no end group is shown, it is not given here.
Key:
Test in all cases: Direct-binding FRET assay
Conditions in all cases: read-out: Kd
FOS = FOS (Homo sapiens, UniProt P01100); set-up: made in house
Method: (§1) The direct binding assay was performed manually in 384-well plates and is similar to a previously described assay. Wells were filled with 20 μL of 1 mM TCEP-HCl. A 4 μM stock of acceptor protein was made fresh in 1 mM TCEP-HCl, and 20 μL was titrated in 2-fold dilutions over the wells. […] The direct-binding FRET data were fit as previously described. Briefly, the Kd of the designed peptide homodimer was experimentally determined and used with previously determined target homodimer Kd values to determine the heterodimer Kd. The homodimer Kd values used for the human bZIPs were from; experiments done by […] et al. used the same protein constructs for the human bZIP proteins, the same buffer conditions, and the same assay. The fitting used a system of ordinary differential equations to describe the concentrations of homo and heterodimers formed by the donor (D) and acceptor (A) as a function of the heterodimer Kd. MATLAB was used to simulate the binding experiment for different Kd values, and the value that gave the best agreement between simulation and experiment was assigned. A minimum 15% change in the donor fluorescence upon titrating the acceptor peptide from 0 to 1000 nM was required for a fit to be attempted. If this minimum was not met, the interaction was classified as “NS” for no signal change. […] For such curves, we removed the first five points and re-fit the data.

JUN = JUN (Homo sapiens, UniProt P05412); set-up: made in house
Method: as §1

MAFG = MAFG (Homo sapiens, UniProt O15525); set-up: made in house
Method: as §1

ATF6B = ATF6B (Homo sapiens, UniProt Q99941); set-up: made in house
Method: as §1

CREB1 = biological target: T1, CREB1 (Homo sapiens, UniProt P16220)
T1 construct: made in house
T1 sequence (P16220 269-327 limits assumed): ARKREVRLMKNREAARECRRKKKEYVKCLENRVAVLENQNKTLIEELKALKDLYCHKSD
Method: as §1

NFE2L3 = biological target: T2, NFE2L3 (Homo sapiens, UniProt Q9Y4A8)
T2 construct: made in house
T2 sequence (Q9Y4A8 578-641 limits assumed): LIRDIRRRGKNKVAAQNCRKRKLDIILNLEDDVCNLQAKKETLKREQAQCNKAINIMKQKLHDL
Method: as §1

XBP1 = biological target: T3, XBP1 (Homo sapiens, UniProt P17861)
T3 construct: made in house
T3 sequence (P17861 70-133 limits assumed): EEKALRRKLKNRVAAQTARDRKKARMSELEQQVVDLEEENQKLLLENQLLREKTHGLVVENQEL
Method: as §1

NFE2 = biological target: T4, NFE2 (Homo sapiens, UniProt Q16621)
T4 construct: made in house
T4 sequence (Q16621 266-329 limits assumed): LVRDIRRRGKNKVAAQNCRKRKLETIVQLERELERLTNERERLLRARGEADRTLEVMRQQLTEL
Method: as §1

ATF3 = biological target: T5, ATF3 (Homo sapiens, UniProt P18847)
T5 construct: made in house
T5 sequence (P18847 86-149 limits assumed): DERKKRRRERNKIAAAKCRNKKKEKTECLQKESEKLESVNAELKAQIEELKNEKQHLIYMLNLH
Method: as §1

ATF4 = biological target: T6, ATF4 (Homo sapiens, UniProt P18848)
T6 construct: made in house
T6 sequence (P18848 278-341 limits assumed): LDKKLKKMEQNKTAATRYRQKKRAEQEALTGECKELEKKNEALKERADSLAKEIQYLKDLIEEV
Method: as §1

MAFF = biological target: T7, MAFF (Homo sapiens, UniProt Q9ULX9)
T7 construct: made in house
T7 sequence (Q9ULX9 51-114 limits assumed): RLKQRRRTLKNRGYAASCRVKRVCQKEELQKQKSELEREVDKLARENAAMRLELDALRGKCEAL
Method: as §1

[1] = 4°C, N-terminal rhodamine design, mean or single
[2] = 23°C, C-terminal fluorescein design as donor, TAMRA target titrated
[3] = 23°C, C-terminal rhodamine design, repeat 1
[4] = 23°C, N-terminal rhodamine design, mean or single
[5] = 37°C, C-terminal fluorescein design as donor, TAMRA target titrated
[6] = 37°C, C-terminal rhodamine design, repeat 1
[7] = 37°C, N-terminal rhodamine design, mean or single
[8] = 4°C, C-terminal fluorescein design as donor, TAMRA target titrated
[9] = 4°C, C-terminal rhodamine design, mean or single
[10] = 23°C, C-terminal rhodamine design, mean or single
[11] = 37°C, C-terminal rhodamine design, mean or single
[12] = 4°C, C-terminal rhodamine design, repeat 1
[13] = 37°C, C-terminal rhodamine design, repeat 2

Measured: Kd

Sequence of MAFG (O15525 51-114 limits assumed): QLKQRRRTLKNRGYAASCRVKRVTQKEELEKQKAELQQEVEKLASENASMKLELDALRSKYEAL
Sequence of ATF6B (Q99941 325-388 limits assumed): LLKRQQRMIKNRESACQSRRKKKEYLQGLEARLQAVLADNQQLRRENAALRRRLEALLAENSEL

NQIKTLRTRLSKLRKDNLQLEKDIANLERKAKDLRAEKEQLEYEL [ATF4-d1]
10 nM: ATF4; [5]
> 5000 nM: FOS; [3] | JUN; [4] | JUN; [7] | MAFG; [12] | MAFG; [3] | ATF6B; [12] | ATF6B; [3] | ATF6B; [6] | CREB1; [8] | CREB1; [1] | CREB1; [4] | CREB1; [6] | NFE2L3; [12] | NFE2L3; [3] | NFE2L3; [6] | NFE2; [1] | NFE2; [6] | NFE2; [13] | ATF4; 4°C, N-terminal rhodamine design, repeat 1 | ATF4; 4°C, N-terminal rhodamine design, repeat 2 | MAFF; [9] | MAFF; [3]
> 1000 nM: FOS; [2] | FOS; [4] | FOS; [5] | FOS; [6] | FOS; [7] | JUN; [8] | JUN; [1] | JUN; [2] | JUN; [5] | MAFG; [1] | MAFG; [4] | MAFG; [7] | ATF6B; [8] | ATF6B; [1] | ATF6B; [2] | ATF6B; [4] | ATF6B; [5] | ATF6B; [7] | CREB1; [12] | CREB1; [2] | CREB1; [3] | CREB1; [5] | CREB1; [7] | NFE2L3; [1] | NFE2L3; [4] | NFE2L3; [7] | XBP1; [12] | XBP1; [1] | XBP1; [3] | XBP1; [4] | XBP1; [6] | XBP1; [7] | NFE2; [4] | NFE2; [5] | NFE2; [7] | ATF3; [12] | ATF3; [1] | ATF3; [2] | ATF3; [3] | ATF3; [4] | ATF3; [5] | ATF3; [6] | ATF3; [7] | MAFF; [4] | MAFF; [7]
200 to 1000 nM: MAFG; [6] | NFE2; [3]
< 200 nM: JUN; [9] | JUN; [10] | MAFF; [1] | MAFF; 23°C, C-terminal rhodamine design, repeat 2 | MAFF; [6] | MAFF; [13]
133 nM: FOS; [1]
2.3 nM: ATF4; [8]
1 nM: ATF4; [9] | ATF4; [10]
3.7 nM: ATF4; [2]
42.4 nM: NFE2; [8]
623 nM: JUN; [11]

EREAQLENRVAHLKEKNQELKAQNLHLKEALSEAQNRNQELKNDA [XBP1-d1]
> 1000 nM: FOS; [8] | FOS; [9] | FOS; [1] | FOS; [2] | FOS; [10] | FOS; [4] | FOS; [5] | FOS; [11] | FOS; [7] | JUN; [9] | JUN; [1] | JUN; [10] | JUN; [4] | JUN; [11] | JUN; [7] | MAFG; [8] | MAFG; [9] | MAFG; [1] | MAFG; [2] | MAFG; [10] | MAFG; [4] | MAFG; [5] | MAFG; [11] | MAFG; [7] | ATF6B; [8] | ATF6B; 4°C, C-terminal rhodamine design, repeat 2 | ATF6B; [2] | ATF6B; [4] | ATF6B; [5] | ATF6B; [11] | ATF6B; [6] | ATF6B; [13] | ATF6B; [7] | CREB1; [1] | CREB1; [10] | CREB1; [4] | CREB1; [11] | CREB1; [7] | NFE2L3; [9] | NFE2L3; [1] | NFE2L3; [10] | NFE2L3; [4] | NFE2L3; [7] | XBP1; 23°C, N-terminal rhodamine design, repeat 1 | XBP1; 23°C, N-terminal rhodamine design, repeat 2 | XBP1; 23°C, N-terminal rhodamine design, repeat 3 | NFE2; [8] | NFE2; [9] | NFE2; [1] | NFE2; [2] | NFE2; [10] | NFE2; [4] | NFE2; [5] | NFE2; [11] | NFE2; [7] | ATF3; [8] | ATF3; [9] | ATF3; [1] | ATF3; [2] | ATF3; [10] | ATF3; [4] | ATF3; [5] | ATF3; [11] | ATF3; [7] | ATF4; [9] | ATF4; [1] | ATF4; [10] | ATF4; [4] | ATF4; [11] | ATF4; [7] | MAFF; [8] | MAFF; [9] | MAFF; [1] | MAFF; [2] | MAFF; [10] | MAFF; [4] | MAFF; [5] | MAFF; [11] | MAFF; [7]
> 5000 nM: CREB1; [9] | NFE2L3; [11]
200 to 1000 nM: ATF6B; [12]

— paper PMC4335062, “Data-Driven Prediction and Design of bZIP Coiled-Coil Interactions” (PLoS Computational Biology, 2015)
